Test results from PubChem BioAssay (NCI).
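Assay format: 96-well plates, 48-hour exposure. GI50 is the concentration that inhibits growth by half. The concentration for full growth arrest is given as TGI.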

Experiments:
Test in all cases: DTP human tumour cell line panel, 48 h
MDA-MB-231 breast = system: MDA-MB-231 breast
HCC-2998 colon = system: HCC-2998 colon
M14 melanoma = system: M14 melanoma
DU-145 prostate = system: DU-145 prostate
KM12 colon = system: KM12 colon
HL-60(TB) leukemia = system: HL-60(TB) leukemia
OVCAR-5 ovarian = system: OVCAR-5 ovarian
UACC-257 melanoma = system: UACC-257 melanoma
HS 578T breast = system: HS 578T breast
HOP-62 NSCLC = system: HOP-62 NSCLC

Structure (SMILES) | TGI (MDA-MB-231 breast) [µM] | TGI (HCC-2998 colon) [µM] | TGI (M14 melanoma) [µM] | TGI (DU-145 prostate) [µM] | GI50 (KM12 colon) [µM] | TGI (KM12 colon) [µM] | TGI (HL-60(TB) leukemia) [µM] | TGI (OVCAR-5 ovarian) [µM] | TGI (UACC-257 melanoma) [µM] | TGI (HS 578T breast) [µM] | TGI (HOP-62 NSCLC) [µM]
CC(=O)c1cnc2oc3ccc(O)cc3c2c1-c1ccccc1 | > 100 | > 100 | > 100 | > 100 | 40.8 | > 100 | > 100 | > 100 | > 100 | > 100 | –
Cc1c2c(OCC3CCCCO3)nn(C)c(=O)c2c(C)n1-c1ccccc1 (stereo not drawn) | 32.2 | 29.4 | 34.9 | 36.9 | – | 40.4 | – | 35.9 | 34.9 | 46.6 | 38
CCCCCCCCCc1nn2c(Cc3ccccc3)nnc2s1 | 54.5 | – | 38.6 | 51.4 | – | 57.7 | – | 29.6 | 54.1 | 38.5 | 39.6
CN(C)CCC(=O)/C=C\c1ccccc1 | – | – | 30.4 | – | – | 29.2 | 36.8 | 35.7 | 31.5 | – | > 100
O=c1[nH]c(=O)n(C2CC(O)C(CO)O2)cc1OCc1ccccc1 (stereo not drawn) | > 100 | – | > 100 | > 100 | – | > 100 | > 100 | > 100 | > 100 | > 100 | > 100
COc1cc2c(cc1OC)-c1cc3ccccc3c(=O)n1CC2 | 43.8 | 50.1 | 80.3 | > 100 | – | 53.5 | – | > 100 | > 100 | 50.2 | 37.1
CC(=O)OCc1c(O)c2c(c(O)c1COC(C)=O)C(=O)C=CC2=O | – | 31.3 | 23.7 | – | – | 28.2 | 46.7 | 30.9 | 20.1 | – | 37.4
N#Cc1nc(NC(=O)c2ccccc2C(=O)O)c(C#N)[nH]1 | > 100 | – | > 100 | > 100 | – | > 100 | > 100 | > 100 | > 100 | > 100 | > 100
O=C1c2ccccc2NC(=S)[C@@H]2CCCN12 | > 100 | > 100 | > 100 | > 100 | – | > 100 | – | > 100 | > 100 | > 100 | > 100
COc1ccc(CC2COc3cc(O)cc(O)c3C2=O)cc1O (stereo not drawn) | > 100 | – | > 100 | 68.1 | – | 43.9 | > 100 | > 100 | > 100 | > 100 | > 100
COc1nc(C#CC(C)(C)C)nc(OC)n1 | 59.8 | – | > 100 | 68.3 | – | 40 | > 100 | 42.5 | > 100 | 91.8 | > 100
CC12CCCC3(CC(=O)C(C)(C)C3C(=O)C1)C2 (stereo not drawn) | – | – | > 100 | > 100 | – | > 100 | > 100 | > 100 | > 100 | > 100 | > 100
O=C(c1ccncc1)C1C(=O)c2ccccc2C1C1(O)c2ccccc2CC1C(O)c1ccncc1 (stereo not drawn) | > 100 | > 100 | > 100 | – | – | > 100 | – | > 100 | > 100 | > 100 | > 100
O=c1cc(-c2ccccc2)oc2c(-c3cc(Cl)cc4c(=O)cc(-c5ccccc5)oc34)cc(Cl)cc12 | > 100 | > 100 | > 100 | > 100 | – | > 100 | > 100 | > 100 | – | > 100 | > 100
S=c1cc(-c2ccc3c(c2)OCO3)s[nH]1 | > 100 | – | > 100 | > 100 | – | > 100 | > 100 | > 100 | > 100 | > 100 | > 100
CCOP(=O)(/C=C\n1ccc(N)nc1=O)OCC | > 100 | – | > 100 | > 100 | – | > 100 | > 100 | > 100 | > 100 | > 100 | > 100
CN(C)CCNC(=O)c1cccc2nc(-c3ccccc3)oc12 | – | > 100 | – | – | – | > 100 | 96.2 | > 100 | 98.1 | – | > 100
COc1ccc(-c2cc(-c3ccccc3)[nH]c(=S)c2C#N)cc1 | > 100 | > 100 | 94 | > 100 | – | > 100 | > 100 | > 100 | – | > 100 | 24.2
CC(C(=O)O)C(C)(O)C(=O)O (stereo not drawn) | > 100 | > 100 | > 100 | > 100 | – | > 100 | > 100 | > 100 | > 100 | > 100 | –
Cc1ccc(/C=C2\Cc3c(C)cc(C)cc3C2=O)c(C(=O)O)c1 | – | 98.6 | > 100 | > 100 | – | > 100 | 65.5 | > 100 | > 100 | > 100 | > 100
CCOC(=O)c1cn2c(n1)sc1cc(Cl)cc(Cl)c12 | > 100 | > 100 | > 100 | > 100 | – | > 100 | – | > 100 | > 100 | > 100 | > 100
NS(=O)(=O)c1cccc(NC(=S)NC(=O)Nc2ccc(Cl)c(Cl)c2)c1 | 38.5 | – | 28.2 | 97.9 | – | 31.4 | – | 84 | > 100 | 45.6 | 30.9
COc1c(O)c2c(=O)cc(OC)c3c4c(OC)cc(=O)c5c(O)c(OC)c6c(c(c1C(C(C)O)C6C(C)O)c23)c54 (stereo not drawn) | 5.48 | 1.65 | 2.34 | 8.14 | – | 3.43 | 1.67 | 7.62 | – | 6.07 | 2.02
c1c2c(cc(-n3nnc4c3CCCCCC4)c1-n1nnc3c1CCCCCC3)CCCCCC2 | – | 29.5 | 32.8 | – | – | 25.8 | > 100 | 30 | 32.9 | – | 39
